Assay results published in patent publication US20100152244A1, “SELF-EMULSIFYING FORMULATION OF TIPRANAVIR FOR ORAL ADMINISTRATION” (BOEHRINGER INGELHEIM INTERNATIONAL GMBH, priority 2008, published 2010).

Assay: lipophilicity (Log P)
Assay type: physicochemical
Source text: One possible reason for the self emulsifying behavior of the Capmul-free formulation is that tipranavir which is a highly lipophilic compound (Log P=6) once dissolved serves as a lipid core in this pre-concentrated microemulsion system. However, this rationale is only a theory and it was certainly not available to serve as guidance and motivation to us when we set about to solve the instability problem posed by the Capmul-containing formulation.

logP: 6
SMILES: CCC[C@@]1(CCc2ccccc2)CC(O)=C([C@H](CC)c2cccc(NS(=O)(=O)c3ccc(C(F)(F)F)cn3)c2)C(=O)O1 [tipranavir, N-[3-[(1R)-1-[(6R)-5,6-dihydro-4-hydroxy-2-oxo-6-(2-phenylethyl)-6-propyl-2H-pyran-3-yl]propyl]phenyl]-5-(trifluoromethyl)-2-pyridinesulfonamide]
